Patent US12377087B2, “Compounds for the treatment of cancer” (UNIVERSITY OF LOUISVILLE RESEARCH FOUNDATION, INC., priority 2015, dated 2025)

Experiments:
[1] = system: panel of 97 protein kinases; test: KINOMEscan active-site dependent competition binding assay; conditions: 10 μM; data not shown
Method: Kinase assays: The fructose-6-phosphate kinase activity of human recombinant PFKFB4 in the presence of DMSO±indicated 5MPN concentrations was assayed as previously described. The activity of 5MPN against 97 kinases was examined using a commercially available active-site dependent competition binding assay core service (KINOMEscanEDGE) that quantifies the capacity of lest agents to compete with an immobilized, active-site directed ligand using a DNA-tagged kinase and immobilized ligand and compound. For example, enzyme inhibition was studies using a ADP-Glo assay. […] ADP is converted into ATP, which is converted into light by a luciferase.

[2] = system: H460 cells; test: ATP measurements in H460 cells; assay type: cell-based, human; conditions: H460, 10 μM 5MPN, 6-72 hours
Method: Cells were lysed and intracellular ATP determined as described previously. For example, cells were washed (while still adherent) with cold PBS 1×, lysed with Passive Lysis Buffer (1×; Molecular Probes, Invitrogen) added directly to the plates, and immediately harvested by scraping. The lysates were flash frozen (to −80° C.) and thawed (to 37° C.) once to accomplish complete lysis and then centrifuged (at 4° C.) for 30 seconds to clear the lysates. Intracellular ATP levels were determined using a bioluminescence assay (Molecular Probes), utilizing recombinant firefly luciferase and its substrate, D-luciferin. The luminescence was read in a TD-20/20 luminometer (Turner Designs) at 560 nm. The ATP values were calculated using an ATP standard curve. The protein concentrations of the lysates were estimated using the BCA assay (Pierce Biotechnology) and ATP was expressed as pmol/μg protein. All data are expressed as the mean±SD of three experiments. Statistical significance was assessed by the two-sample t test (independent variable).

[3] = system: HCT116; test: viable cell count of HCT116 cells; assay type: cell-based; conditions: HCT116, 48 hours
Method: (§1) Cell Viability: Cells were incubated in 20% trypan blue (Sigma) for 5 minutes. Cells excluding trypan blue were counted using a standard hemocytometer (Hausser Scientific) to determine total numbers of viable cells. Data are expressed as mean±SD of three experiments.

[4] = system: hT/LT/Ras cells; test: viable cell count of hT/LT/Ras cells; assay type: cell-based, human; conditions: 48 hours
Text: Cell lines and cell culture: H460, H1299, H441, H522 and A549 non-small cell lung cancer (NSCLC), MDA-MB-231 (breast), LNCaP (prostatic) and HCT116 (colon) adenocarcinoma and Lewis lung carcinoma (LLC) cell lines were obtained from ATCC and used within 6 months of acquisition, PFKFB4^7 ear pinna Fibroblasts isolated from TamCre/loxP/PFKFB4^−/− mice were immortalized as described previously (Chesney J et al. Fructose-2,6-bisphosphate synthesis by 6-phosphofructo-2-kinase/fructose-2,6-bisphosphatase 4 (PFKFB4) is required for the glycolytic response to hypoxia and tumor growth. Oncotarget 2014 Aug. 30; 5(16):6670-86). Normal bronchial epithelial cells (NHBE) were obtained from Lonza and NHBE cells expressing telomerase, SV40 large T antigen and activated Ras (hT/LT/Ras) were a gift from Dr. B. J. Rollins, Dana Farber Cancer Institute. All cell lines were tested and found negative for mycoplasma (PCR Mycoplasma Detection Kit, ABM). […]
as §1

[5] = two-week oral toxicity study; assay type: in vivo; conditions: C57BL/6 mice, 120 mg/kg PO for two weeks
Method: Given the potential usefulness of oral administration in terms of cost and convenience, we elected to pursue this route in subsequent toxicity and efficacy pre-clinical studies. Initially, we dosed C57BL/6 mice with 120 mg/kg PO for two weeks and analyzed the effect on complete blood counts, electrolytes, hepatic and renal function, body mass and the gross and histological appearance of the brain, heart, lungs, liver, kidneys and spleen. […] Next, the effects of oral administration of 5MPN on intratumoral F2,6BP and glucose uptake by LLC xenografts was examined. […] It was confirmed that 5MPN caused a G1 arrest in LLC cells in vitro similar to H460 cells (FIG. 4G). The number of Ki67-positive cells was examined since Ki-67 expression correlates with later S and G2 phases of the cell cycle (Sasaki K et al. The cell cycle associated change of the Ki-67 reactive nuclear antigen expression. J Cell Physiol 1987 December; 133(3):579-84).

[6] = system: H460 human lung adenocarcinoma xenografts; test: H460 xenograft tumor growth in athymic mice; assay type: in vivo, BALB/c athymic mice; conditions: 120 mg/kg oral daily

## COc1cccc2c(NCCCCCO[N+](=O)[O-])ccnc12 [5MPN, 5-[(8-methoxyquinolin-4-yl)amino]pentyl nitrate]
[1]
  inhibition of a panel of 97 protein kinases: not inhibited
[2]
  ATP: reduced
[3]
  growth, viable cells: dose-dependent reduction in growth
[4]
  cell growth, live cells: suppressed similar to other transformed cells
[5]
  toxicity: blood counts, electrolytes, hepatic and renal function, body mass, organ histology, behavioral or clinical changes: no signs of toxicity
[6]; H460-bearing athymic mice
  body weight: without affecting body weight
[6]; athymic mice
  tumor growth of H460 xenografts: suppressed the growth
